The text below walks through data of a melting point compilation (Tetko et al.; mined from patent text by program, amines drawn as free bases though some values may be those of a salt).

SMILES strings stand for the structures.

As a reminder, the melting point is the temperature, or range, at which the solid turns liquid. On to `Cn1c(OC2CCOC2)nn(C(=O)NS(=O)(=O)c2ccccc2OC(F)(F)F)c1=O` (stereo not drawn), for which the melting point is 184 °C.

The molecule `CC(C)Oc1cc(-n2c(=O)cc(C(F)(F)F)n(C)c2=O)c(F)cc1Cl` yielded a melting point of 90 to 93 °C.

Take `O=C(O)COc1ccc(C(=NO)c2ccccc2F)c(Cl)c1Cl`: the melting point fell in the range of 91 to 96 °C.

As for `N#Cc1ccc2c(c1)OCC21C(=O)N(Cc2ccc3c(c2)OCCO3)c2ccccc21` (stereo not drawn), the melting point is 181 to 183 °C.

Turning to `NCCOc1cc(F)cc2c1OCCC2`, the melting point was in the range of 68 to 70 °C.

In turn, `CCCN(CCC)C1Cc2cc3c(cc2C1)C(=O)N(c1ccc(C#N)cc1)C3=O` yielded a melting point of 250 to 251 °C.

In turn, `COc1ccc2oc(C)c(Cc3cccc(NS(=O)(=O)C(F)(F)F)c3)c(=O)c2c1` registered a melting point of 172 to 174 °C.

`Fc1ccc(-c2ccco2)cc1` came in with a melting point of 84 to 86 °C.

Take `CC(C)(C)C(=O)OC(COc1cccc2[nH]ccc12)CN1CCC(COc2ccccc2)CC1` (stereo not drawn): the melting point was in the range of 103 to 105 °C.

`O=C1N(c2ccc(Cl)cc2)c2ncccc2C1(Cc1ccncc1)Cc1ccccn1` (stereo not drawn) displayed a melting point of 193 to 195 °C.

Turning to `O=C(O)c1cccn1Cc1ccco1`, the melting point was 117 to 118 °C.

As to `O=C1Nc2cnc(N3CCN(c4ccccn4)CC3)nc2S/C1=C/c1ccc([N+](=O)[O-])cc1`, the melting point was in the range of 332 to 334 °C.

For the molecule `Sc1nnnn1CCCc1ccccc1`, the melting point lay within 75 to 76 °C.

As to `CCCCCCc1cc2c(cc1OCCCC(=O)O)C(=O)CC2`, the melting point worked out at 88 °C.

`NC(=O)N1C(=O)C(C(=O)c2cccs2)c2nc(Cl)c(Cl)cc21` (stereo not drawn) showed a melting point of 237 to 240 °C.

In turn, `CC(=O)Nc1cnc(C2OCCO2)cc1C` returned a melting point of 98 to 99 °C.

On to `O=S1(=O)N=CN(C2CC2)c2cc(Br)c(C(F)(F)F)cc21`, for which the melting point lay within 204 to 206 °C.

For the molecule `C=C(Cc1ccccc1)C(=O)NN1CCN(C(=O)OC(C)(C)C)CC1`, the melting point was determined as 160 °C.

Take `Cc1oc(-c2ccccc2)nc1COc1ccc(CON=C(CCCCC(=O)NS(C)(=O)=O)c2ccccc2)cc1`: the melting point was in the range of 130 to 132 °C.

On to `CN(C)c1ccc(-c2cnc3[nH]cc(C(=O)N[C@@H](C(=O)N4CC(C#N)C4)C4CC4)c3n2)cc1`, for which the melting point fell in the range of 175 to 180 °C.

`N#Cc1ccc(COc2ccc(CC(NC(=O)c3cn4ccc(-c5ccc(Cl)cc5)cc4n3)C(=O)O)cc2)cc1` (stereo not drawn): the melting point was 263 °C.

For the molecule `CC(=O)c1ccc(OCCCN2CCC(c3noc4cc(F)ccc34)CC2)c(N(C)C)c1`, the melting point lay in the range of 94 to 96 °C.

The molecule `NC(=O)N(O)Cc1ccc(Oc2ccc(-n3ccnc3)cc2)o1` registered a melting point of 155 °C.

Consider `O=c1[nH]c(=O)n(C2CC(O)C(CO)O2)cc1-c1ccccn1` (stereo not drawn), for which the melting point is 201 to 203 °C.

In the case of `CCOc1cc(OCC)nc(N2CCN(Cc3ccc(CNC(C)=O)cc3)CC2)n1`, the melting point was in the range of 119 to 120 °C.

On to `CC(C)(C)OC(=O)NCc1cccc(OCCC2Oc3ccccc3N(Cc3ccccc3Cl)C2=O)c1` (stereo not drawn), for which the melting point lay in the range of 115 to 116 °C.

Turning to `Cc1ccc(S(=O)(=O)OCC(O)Cc2c(Cl)cc3c(c2O)CCC3)cc1` (stereo not drawn), the melting point was in the range of 125 to 127 °C.

For `CC(CCCO)C1CCC2C3C(O)CC4CC(O)CCC4(C)C3CCC12C` (stereo not drawn), the melting point lay in the range of 116 to 118 °C.

As for `COC(=O)COc1ccc(CC2SC(=O)N(C(c3ccccc3)(c3ccccc3)c3ccccc3)C2=O)cc1` (stereo not drawn), the melting point was in the range of 158 to 162 °C.

`CC(=O)SCCC(=O)N1N=C(c2ccc(C(F)(F)F)cc2)SC1C(=O)OCc1ccccc1` (stereo not drawn) yielded a melting point of 120 to 121 °C.

Regarding `CC(=CN(C)C)C(=O)c1ccc(Cl)cc1`, the melting point lay within 45 to 47 °C.

Molecule `Cc1cnc2c(NC(=O)c3c(Cl)cccc3Cl)ccc(Cl)c2c1Cl` had a melting point of 222 to 233 °C.

Molecule `CNC(=O)c1ccccc1Nc1nc(Nc2ccc(OC)c3c2N(C)C(=O)CCC3)ncc1Cl` displayed a melting point of 165 to 167 °C.
